According to ChEMBL document CHEMBL1201862, “PubChem BioAssay data set” (2004):
Activity calls are given as the source filed them.

Experiments:
[1] = molecular target: Cytochrome P450 3A4 (Homo sapiens, UniProt P08684);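 note: CYP3A4 tested as one member of a cytochrome P450 panel screen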
[2] = molecular target: Voltage-gated inwardly rectifying potassium channel KCNH2 (Homo sapiens, UniProt Q12809); conditions: Potency;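 note: confirmatory quantitative high-throughput screen measuring inhibition of hERG channel activity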
Chain of Voltage-gated inwardly rectifying potassium channel KCNH2 (Q12809 whole entry): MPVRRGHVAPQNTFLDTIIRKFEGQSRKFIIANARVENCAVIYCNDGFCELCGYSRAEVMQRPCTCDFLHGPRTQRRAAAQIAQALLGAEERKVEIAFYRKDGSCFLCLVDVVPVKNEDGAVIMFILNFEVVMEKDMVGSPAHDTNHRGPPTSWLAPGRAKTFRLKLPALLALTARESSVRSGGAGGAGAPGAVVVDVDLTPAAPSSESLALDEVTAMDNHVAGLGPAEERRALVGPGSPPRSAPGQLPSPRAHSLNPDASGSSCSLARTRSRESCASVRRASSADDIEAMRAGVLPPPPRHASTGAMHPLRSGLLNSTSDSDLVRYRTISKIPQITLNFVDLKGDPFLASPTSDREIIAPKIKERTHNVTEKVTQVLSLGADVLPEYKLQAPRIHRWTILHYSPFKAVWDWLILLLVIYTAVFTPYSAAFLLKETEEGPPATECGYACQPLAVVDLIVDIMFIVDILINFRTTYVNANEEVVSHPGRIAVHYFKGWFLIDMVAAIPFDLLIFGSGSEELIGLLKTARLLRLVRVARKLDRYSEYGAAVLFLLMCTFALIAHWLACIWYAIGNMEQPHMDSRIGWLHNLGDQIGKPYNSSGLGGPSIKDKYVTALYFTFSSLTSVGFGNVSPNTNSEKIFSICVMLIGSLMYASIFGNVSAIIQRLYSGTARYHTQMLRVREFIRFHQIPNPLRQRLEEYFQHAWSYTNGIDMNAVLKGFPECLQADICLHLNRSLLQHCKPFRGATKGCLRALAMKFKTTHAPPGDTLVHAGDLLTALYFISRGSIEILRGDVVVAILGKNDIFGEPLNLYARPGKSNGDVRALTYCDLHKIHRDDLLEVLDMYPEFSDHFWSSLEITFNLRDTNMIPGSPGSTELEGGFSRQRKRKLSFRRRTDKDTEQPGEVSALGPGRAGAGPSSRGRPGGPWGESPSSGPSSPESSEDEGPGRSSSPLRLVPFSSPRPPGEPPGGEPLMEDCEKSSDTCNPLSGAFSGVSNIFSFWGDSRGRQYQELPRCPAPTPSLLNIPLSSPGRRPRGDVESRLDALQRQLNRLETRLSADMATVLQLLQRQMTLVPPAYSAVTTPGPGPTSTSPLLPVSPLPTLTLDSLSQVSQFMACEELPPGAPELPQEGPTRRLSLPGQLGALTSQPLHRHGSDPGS

[3] = molecular target: T1, Mannose-6-phosphate isomerase (Homo sapiens, UniProt P34949); assay: phosphomannose isomerase inhibition – biochemical, fluorescence intensity, confirmation (AID 1535)
T1 sequence (P34949 whole entry): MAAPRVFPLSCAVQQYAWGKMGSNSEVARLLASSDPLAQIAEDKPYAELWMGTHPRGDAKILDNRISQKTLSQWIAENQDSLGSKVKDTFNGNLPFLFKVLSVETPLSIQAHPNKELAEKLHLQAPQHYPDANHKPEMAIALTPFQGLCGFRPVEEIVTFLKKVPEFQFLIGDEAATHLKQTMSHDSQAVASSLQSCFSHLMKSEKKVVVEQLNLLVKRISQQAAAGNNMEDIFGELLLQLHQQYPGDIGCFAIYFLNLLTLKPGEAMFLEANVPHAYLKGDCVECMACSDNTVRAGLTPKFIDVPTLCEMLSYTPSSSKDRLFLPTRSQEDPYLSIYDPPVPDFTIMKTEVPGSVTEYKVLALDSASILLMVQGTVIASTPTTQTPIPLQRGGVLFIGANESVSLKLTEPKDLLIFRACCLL

[4] = molecular target: Phosphomannomutase 2 (Homo sapiens, UniProt O15305); assay: Counter screen SAR assay for PMM2 inhibitors via a fluorescence intensity assay. [Related pubchem assays (depositor defined):AID1545, AID1574]
Chain of Phosphomannomutase 2 (O15305 whole entry): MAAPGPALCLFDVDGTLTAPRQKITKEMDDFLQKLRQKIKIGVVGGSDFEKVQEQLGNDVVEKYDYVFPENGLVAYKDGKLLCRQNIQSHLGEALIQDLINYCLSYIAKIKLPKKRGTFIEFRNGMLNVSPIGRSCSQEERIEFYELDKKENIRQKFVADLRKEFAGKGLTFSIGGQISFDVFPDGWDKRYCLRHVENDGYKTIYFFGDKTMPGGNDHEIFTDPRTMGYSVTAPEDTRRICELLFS

[5] = Luminescence Cell-Based Dose Retest to Confirm Inhibitors of Cancer Stem Cells. [Related pubchem assays (depositor defined):AID2717, AID2721]; assay type: functional; conditions: Homo sapiens
[6] = viability loss of HMLE_sh_eGFP cells – cell-based, luminescence, counter-screen for HMLE_sh_ECad selective toxicity project, dose response (AID 463074); assay type: functional, Homo sapiens;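 note: HMLE human mammary epithelial cells expressing control shRNA against eGFP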
[7] = molecular target: Dual specificity protein kinase CLK1 (Homo sapiens, UniProt P49759); assay: inhibition of human CLK1 activity – biochemical, cherry-picked samples, selectivity assay for Dyrk1A inhibitor project, dose response (AID 588811)
Chain of Dual specificity protein kinase CLK1 (P49759 whole entry): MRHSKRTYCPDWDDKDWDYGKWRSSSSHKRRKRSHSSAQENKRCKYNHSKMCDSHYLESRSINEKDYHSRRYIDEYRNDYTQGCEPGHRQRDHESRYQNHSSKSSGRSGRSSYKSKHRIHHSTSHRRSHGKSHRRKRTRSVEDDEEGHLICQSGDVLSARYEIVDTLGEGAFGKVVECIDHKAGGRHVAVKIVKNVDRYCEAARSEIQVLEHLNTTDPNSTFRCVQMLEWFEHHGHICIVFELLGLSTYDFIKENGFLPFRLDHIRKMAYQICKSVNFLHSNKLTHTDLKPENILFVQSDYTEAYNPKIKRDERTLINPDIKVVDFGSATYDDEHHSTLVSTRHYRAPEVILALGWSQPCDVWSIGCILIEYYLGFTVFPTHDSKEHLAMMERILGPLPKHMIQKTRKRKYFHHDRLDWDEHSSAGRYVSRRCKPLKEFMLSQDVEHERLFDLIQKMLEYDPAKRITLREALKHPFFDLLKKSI

[8] = molecular target: Dual specificity tyrosine-phosphorylation-regulated kinase 1A (Rattus norvegicus, UniProt Q63470); assay type: biochemical, Homo sapiens
[9] = molecular target: Luciferin 4-monooxygenase (Photinus pyralis, UniProt P08659); assay: inhibition of purified Photinus pyralis luciferase – biochemical, luminescence, dose response (AID 1891)
Chain of Luciferin 4-monooxygenase (P08659 whole entry): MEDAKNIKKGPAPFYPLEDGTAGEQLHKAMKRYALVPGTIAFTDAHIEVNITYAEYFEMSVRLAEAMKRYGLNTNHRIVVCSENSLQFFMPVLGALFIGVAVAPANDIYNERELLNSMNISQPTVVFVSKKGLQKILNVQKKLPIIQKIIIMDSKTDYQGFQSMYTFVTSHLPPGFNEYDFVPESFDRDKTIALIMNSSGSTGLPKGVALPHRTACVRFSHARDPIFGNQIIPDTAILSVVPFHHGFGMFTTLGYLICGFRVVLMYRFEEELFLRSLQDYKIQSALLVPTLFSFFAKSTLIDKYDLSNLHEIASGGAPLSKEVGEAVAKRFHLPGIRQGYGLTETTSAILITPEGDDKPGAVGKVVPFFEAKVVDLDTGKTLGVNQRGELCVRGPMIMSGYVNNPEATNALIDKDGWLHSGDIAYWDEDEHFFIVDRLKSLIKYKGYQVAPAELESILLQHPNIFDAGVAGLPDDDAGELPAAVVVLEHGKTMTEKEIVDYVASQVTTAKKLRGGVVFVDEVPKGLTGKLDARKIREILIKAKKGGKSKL

[10] = Luminescence Cell-Based Dose Confirmation HTS to Identify Inhibitors of Platelet Dense Granule Release. [Related pubchem assays: 1663 (Primary HTS), 1678 (Summary of Project)]; assay type: functional
[11] = molecular target: Nonstructural protein 1 (Influenza A virus, UniProt Q194T2); assay type: functional, Influenza A virus (A/California/07/2009(H1N1))
Chain of Nonstructural protein 1 (Q194T2 whole entry): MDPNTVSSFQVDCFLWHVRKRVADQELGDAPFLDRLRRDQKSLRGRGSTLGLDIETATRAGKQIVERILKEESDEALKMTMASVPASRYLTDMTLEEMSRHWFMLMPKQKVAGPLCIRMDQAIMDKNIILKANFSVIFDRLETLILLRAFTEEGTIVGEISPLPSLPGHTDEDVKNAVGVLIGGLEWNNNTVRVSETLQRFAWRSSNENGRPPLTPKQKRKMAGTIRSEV

[12] = tested on: MDCK; assay: antiviral activity against H1N1 influenza, dose response, cell-based, strain KY180 (AID 540254); assay type: functional; conditions: Canis lupus familiaris
[13] = tested on: MDCK; assay: MDCK cell cytotoxicity, dose response, cytotoxicity control (AID 540296); assay type: functional; conditions: Canis lupus familiaris

Chain of Cytochrome P450 3A4 (P08684 whole entry): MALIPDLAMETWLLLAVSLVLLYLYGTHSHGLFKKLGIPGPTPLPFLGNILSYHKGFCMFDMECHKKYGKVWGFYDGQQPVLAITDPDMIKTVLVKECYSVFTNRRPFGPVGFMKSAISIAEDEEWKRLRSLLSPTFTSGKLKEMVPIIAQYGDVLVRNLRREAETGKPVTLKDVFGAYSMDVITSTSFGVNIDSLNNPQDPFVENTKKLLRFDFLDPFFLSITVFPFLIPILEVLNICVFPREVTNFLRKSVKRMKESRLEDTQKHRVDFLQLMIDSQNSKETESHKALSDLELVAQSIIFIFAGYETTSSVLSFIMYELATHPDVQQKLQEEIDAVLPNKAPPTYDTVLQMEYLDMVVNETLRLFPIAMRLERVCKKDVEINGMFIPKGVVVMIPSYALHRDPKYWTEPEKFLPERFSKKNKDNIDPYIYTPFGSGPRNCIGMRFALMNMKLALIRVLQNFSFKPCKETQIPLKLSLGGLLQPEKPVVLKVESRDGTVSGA

CCn1c(=O)c2[nH]c(-c3ccccc3)nc2n(CC)c1=O
AC50 [1]: 3.98 µM (inconclusive)
AC50 [2]: 35.5 µM (inconclusive)

O=P(c1ccccc1)(c1nc2ccccc2s1)N1CCOCC1 (stereo not drawn)
IC50 [3]: > 50 µM (inactive)
IC50 [4]: > 100 µM (inactive)

O=C1c2ccccc2C(=O)N1CC#CCN1CCN(C(c2ccccc2)c2ccccc2)CC1
AC50 [5]: 2.06 µM (active)
AC50 [6]: 25.2 µM (active)

COc1ccc(C(=O)c2sc(Nc3ccccc3F)nc2N)cc1
AC50 [7]: 3.41 µM (active)
AC50 [8]: 1.63 µM (active)

COc1ccc(N2CCN(CCCN)CC2)cc1
EC50 [9]: > 112 µM (not active)
EC50 [10]: > 112 µM (not active)
IC50 [11]: 39.8 µM (active)
IC50 [12]: 23 µM (active)
CC50 [13]: > 40 µM (active)
